{"source": "patent US7037652B2", "about": "“Expression analysis of KIAA nucleic acids and polypeptides useful in the diagnosis and treatment of prostate cancer” (Wyeth, priority 2000, dated 2006)", "key": {"[1]": {"test_system": "PSA expression in LNCaP cells", "settings": "10 nM DHT, FIG. 3A"}, "[2]": {"test_system": "KIAA 18 expression in LNCaP cells", "settings": "10 nM DHT"}, "[3]": {"test_system": "PSA production of LNCaP cells"}, "[4]": {"test_system": "KIAA 96 expression in LNCaP cells", "settings": "10 nM DHT, 24 hours, FIG. 3C"}, "[5]": {"test_system": "Prostatic Acid Phosphatase (PAcP) in LNCaP", "settings": "cited from earlier work"}, "[6]": {"test_system": "LNCaP cells", "settings": "MTT assay, FIG. 1A", "experimental": "Human prostatic cancer cell lines LNCaP, DU-145, PC-3, and Tsu-prl were obtained from ATCC. LNCaP cancer cells were maintained in humidified atmosphere of 5% CO2 in air in RPMI 1640 medium supplemented with 10% fetal calf serum (Life Technologies, Inc, Rockville, Md.), 3 mM L-glutamine, 100 μg/ml streptomycin and 100 units/ml penicillin. Other lines were maintained in DMEM containing 3 mM L-glutamine, 100 μg/ml streptomycin, 100 units/ml penicillin, and 10% FCS in humidified atmosphere of 5% CO2. To examine the effects of steroids, cells were cultured in RPMI 1640 medium containing 5% FCS treated with dextran coated charcoal (Hyclone, Logan, Utah) for 24 hs before treatment. Cells were grown in the absence or presence of 10 nM DHT for 0, 2, 4, 6, 12, 24, 48, and 72 hs. They were collected and frozen at each time point. Two hundred μl of medium were collected from each flask for PSA assay.\nTo verify the effect of DHT on the growth of LNCaP cells, cells at 3,000 cells/well were plated in 96-well plates for 24 hs before treatment with DHT. After 72 hs, MTT was added to each well and incubated at 37° C. for four hs. At the end of incubation, the supernatant was removed and 100 μl DMSO was added to each well to dissolve […]. Plates were subsequently read in a plate reader at […]."}}, "data": [{"smiles": "C[C@]12CCC(=O)C[C@@H]1CC[C@@H]1[C@@H]2CC[C@]2(C)[C@@H](O)CC[C@@H]12", "note": "[DHT, dihydrotestosterone]", "values": [{"measurement": "PSA expression increase relative to control", "setting": "[1]; 12 hours", "value": 3, "unit": "fold"}, {"measurement": "PSA expression induction relative to control", "setting": "[1]; 72 hours", "value": "approximately 4 fold"}, {"measurement": "time at which KIAA 18 induction began", "setting": "[2]", "value": 12, "unit": "h"}, {"measurement": "KIAA 18 over-expression relative to control", "setting": "[2]; 24 hours, FIG. 3B", "value": 2, "unit": "fold"}, {"measurement": "KIAA 18 induction relative to baseline", "setting": "[2]; 72 hours", "value": 3, "unit": "fold"}, {"measurement": "PSA production", "setting": "[3]", "value": "increased in a dose-dependent manner"}, {"measurement": "time at which PSA signal was first detected", "setting": "[3]", "value": 12, "unit": "h"}, {"measurement": "time of maximal PSA level", "setting": "[3]", "value": "about 48 hs"}, {"measurement": "KIAA 96 expression down relative to baseline", "setting": "[4]", "value": 6, "unit": "fold"}, {"measurement": "PAcP expression", "setting": "[5]", "value": "suppressed"}, {"measurement": "growth of LNCaP cells", "setting": "[6]", "value": "stimulated"}]}]}
